Experimental data: patent US9815878B2, “Use of PEDF-derived polypeptides for preventing and/or ameliorating skin aging” (MacKay Memorial Hospital, priority 2012, dated 2017)

Legend:
dermal fibroblasts = experiment: Dermal fibroblast proliferation in photo damaged (UVB irradiated) skin in vivo, BrdU/vimentin staining; parameters: species or system nude mice (BALB/cAnN.Cg-Foxn1nu/CrlNarl); conditions: for BrdU/Vimentin Labeling Index (%): after 8-week UVB, ointment plus microneedle twice a week for 2 weeks
Procedure: For animal study, BrdU was reconstituted in DMSO as stock (80 mM). 10 μl of BrdU stock mixed with 90 μl of PBS was intraperitoneally injected into mouse at 16 hours prior to euthanasia. Formalin-fixed, paraffin-embedded skin specimens were deparaffinized in xylene and rehydrated in a graded series of ethanol. The specimens were then exposed to 1 N HCl at room temperature for 1 hour for subsequent immunofluorescence study.
BrdU-labeled DNA was detected by polyclonal anti-BrdU antibody and rhodamine-conjugated donkey anti-rabbit IgG. Nuclei were counterstained with Hoechst 33258 (blue).
Six-week-old female nude mice (BALB/cAnN.Cg-Foxn1nu/CrlNarl) were irradiated with ultraviolet B (UVB) on the back 5 times a week for an eight-week period using a bank of five UVB lamps (model XL-1000B, Spectrolinker™ apparatus; emission peak: 312 nm), placed about 20 cm above the backs of the animals. During the UVB exposure, the mice were allowed to move freely within the cage. The irradiation intensity represented as the minimal erythe al dose (MED) was set at 1 MED during the first 2 weeks (60 mJ/cm^2), and was progressively elevated to 2 MED (120 mJ/cm^2) in the 3rd-4th week, to 3 MED (180 mJ/cm^2) in the 5th-6th week, and to 4 MED (240 mJ/cm^2) during the 7th-8th weeks of the experiment. After the 8-week UVB exposure, animals developed noticeable wrinkles and were subsequently randomly divided into the following 4 groups, with 3 mice in each group. In the UVB/vehicle, UVB/29-mer, UVB/20-mer, and UVB/18-mer groups, 350 μl of ointment (containing DMSO, 29-mer, 20-mer or 18-mer PEDF) was applied to the dorsal skin and then transdermal delivery was achieved by punching the ointment treated skin with the microneedle patch. Also, mice that were not subjected to UVB radiation were used as control (Normal). The ointment/microneedle treatment was given twice a week for 2 weeks. Mice were intraperitoneally given BrdU and euthanized at 16 hours after the last treatment. Skin sections were stained for vimentin and BrdU. The level of BrdU- and vimentin-double positive cells was expressed as the percentage of BrdU- and vimentin-double positive cells per total vimentin-positive cells (the BrdU/Vimentin Labeling Index).

MMP-13 = experiment: UVB-induced MMP-13 mRNA expression in primary mouse dermal fibroblasts, RT-PCR; format: cell-based; conditions: for MMP-13 Expression Level (%): mRNA, Vehicle/UVB set to 100%; for effect on UVB-induced upregulation of MMP-13: cells pretreated with peptide
Procedure: Full-thickness skin tissue was obtained from the dorsum of C57BL/6 mouse. The subcutaneous tissue was carefully dissected from the skin and washed three times in sterile phosphate-buffered saline (PBS). The tissue was then cut into small pieces (1-2 mm^3). After being digested with 0.1% dispase at 4° C. overnight, the epidermal layers were removed, and the remaining dermal parts were further digested with 0.1% collagenase I at 37° C. for another 4 hours. The digested cells were then collected by centrifugation (400 g for 5 minutes) and resuspended in high-glucose DMEM supplemented with 10% FBS, 2 mM L-glutamine, and 1% penicillin-streptomycin antibiotic mixture. Cells were seeded onto tissue-culture plates (Falcon Labware; NJ, USA) at 1×10^3 cells/cm^2 and maintained at 37° C. with 5% CO2. After 24 hours, the medium was discarded to remove residual non-adherent cells, and cell culture was replenished with a fresh medium. For passage, near-confluent cells were harvested with 0.25% trypsin/EDTA.
The total RNA was extracted from cells using the TRIzol (Invitrogen) and treated with RNase-free DNase I (Qiagen, Santa Clarita, Calif.) to remove genomic DNA and then purified with an RNA purification kit (Dynabeads; Invitrogen). 1 μg of total RNA retrieved from primary dermal fibroblast was reverse-transcribed into cDNA by 200 units of expand Reverse-Transcriptase (Roche, Mannheim, Germany) in 20 μl of reaction buffer containing 0.25 μg of random primers and 0.8 mM dNTPs at 42° C. for 1 hour. 2 μl of the cDNA was used for the PCR reaction as templates. PCR was performed in a 30 μl volume containing 15 μl of EconoTaq® PLUS GREEN 2× Master Mix (Lucigen® Corp.), 1 μM of each primer and 2 μl of template DNA. cDNA was synthesized in an 18-22 cycle amplification reaction (denaturation, 20 s, 94° C.; annealing, 30 s, 57° C.; and polymerization, 40 s, 72° C.). The number of cycles for the primer set was chosen to be in the linear range of amplification. The sequences of specific PCR primers were mouse MMP-13 (accession number: NM_008607) sense, […] (SEQ ID NO: 12); antisense, […] (SEQ ID NO: 13); PCR product: 201 bp; and mouse glyceraldehyde 3-phosphate dehydrogenase (GAPDH; accession number: M32599) sense, […] (SEQ ID NO: 14); and anti-sense, […] (SEQ ID NO: 15); PCR product: 223 bp.). The PCR products were electrophoresed in a 2% agarose gel containing ethidium bromide and visualized by UV illumination. The intensities of the PCR products were quantified densitometrically using a FUJI LAS-3000 system and Multi Gauge Ver. 1.01 software (Fujifilm, Tokyo, Japan).
Primary mouse dermal fibroblasts in passage 2 of monolayer cultures were incubated with 1% FBS-DMEM supplemented with or without 100 nM PEDF peptide for 24 hours, and then subjected to UVB irradiation as described above. After UVB irradiation, PBS was replaced with 1% FBS-DMEM with or without PEDF peptide for further 24 hours, and then cellular total RNAs were extracted for subsequent RT-PCR analysis. The expression level of MMP-13 mRNA was normalized with the expression level in the Vehicle/UVB group (set to 100%), and quantitative results are summarized in Table 7.

dermal collagen = experiment: Collagen content of UVB-damaged mouse skin, Masson's trichrome staining; format: in vivo, nude mice; conditions: 8-week UVB, then transdermal delivery for 2 weeks
Procedure: General histology was performed using hematoxylin and eosin (H&E) dye. Deparaffinized skin tissue sections were stained using Masson's Trichrome (Sigma-Aldrich, St. Louis, Mo.) according to the manufacturer's instructions; sections was examined and photographed by a Nikon Eclipse 80i light microscope (original magnification, ×400). For semi-quantitative analysis of collagen area, 10 fields from each slide were randomly selected under the light microscope, and the blue-stained area per entire area of the cross section (mm^2/mm^2) was measured using the Image-Pro Plus 4.5.1 system (Media Cybernetics).
Six-week-old female nude mice (BALB/cAnN.Cg-Foxn1nu/CrlNarl) were irradiated with ultraviolet B (UVB) on the back 5 times a week for an eight-week period using a bank of five UVB lamps (model XL-1000B, Spectrolinker™ apparatus; emission peak: 312 nm), placed about 20 cm above the backs of the animals. During the UVB exposure, the mice were allowed to move freely within the cage. […] The level of BrdU- and vimentin-double positive cells was expressed as the percentage of BrdU- and vimentin-double positive cells per total vimentin-positive cells (the BrdU/Vimentin Labeling Index). […]

[1] = after UVB exposure, transdermal delivery
[2] = 100 nM peptide 24 h before and 24 h after UVB 15 mJ/cm^2

Substance: SLGAEQRTESIIHRALYYDL [20-mer, synthetic peptide corresponding to residues 93-112 of human PEDF]
- BrdU/Vimentin Labeling Index (%) (dermal fibroblasts): 5.9 ± 1.3 %
- proliferative activity of dermal fibroblasts relative to UVB/vehicle group (dermal fibroblasts; [1]): about 2.5 fold
- MMP-13 Expression Level (%) (MMP-13; [2]): 15.8 ± 3.3 %
- effect on UVB-induced upregulation of MMP-13 (MMP-13): substantially reduced
- collagen level in the dermis versus UVB/vehicle group (Masson's trichrome, FIG. 5) (dermal collagen): significantly enhanced

Substance: Ac-SLGAEQRTESIIHRALYYDLISSPDIHGT-NH2 [29-mer]
- BrdU/Vimentin Labeling Index (%) (dermal fibroblasts): 5.2 ± 1.9 %
- proliferative activity of dermal fibroblasts relative to UVB/vehicle group (dermal fibroblasts; [1]): about 2.5 fold
- MMP-13 Expression Level (%) (MMP-13; [2]): 15.8 ± 1.8 %
- MMP-13 Expression Level (%) (MMP-13; 100 nM peptide, no UVB irradiation): 4.8 ± 0.63%
- effect on UVB-induced upregulation of MMP-13 (MMP-13): substantially reduced
- collagen level in the dermis versus UVB/vehicle group (Masson's trichrome, FIG. 5) (dermal collagen): significantly enhanced

Substance: EQRTESIIHRALYYDLIS [18-mer]
- BrdU/Vimentin Labeling Index (%) (dermal fibroblasts): 2.0 ± 0.8%
- effect on dermal fibroblast proliferation in UVB-damaged skin (dermal fibroblasts; [1]): failed to promote the dermal fibroblast proliferation
- MMP-13 Expression Level (%) (MMP-13; [2]): 103.3 ± 7.8%
- effect on UVB-induced upregulation of MMP-13 (MMP-13): unable to reduce the UVB-induced upregulation
